According to patent US7745424B2, “Alkane diol derivatives as therapeutic agents for the treatment of bone conditions” (The Univeristy Court of the University of Aberdeen, priority 2001, dated 2010):

Tests used:
[1] = test system: macrophage cell line J774; experiment: MTT macrophage J774 viability assay; assay type: cell-based; settings: for IC50: Mus musculus, macrophage J774 viability; for IC50 / macrophage J774 viability, activity in words: MTT assay; for macrophage J774 viability, activity in words: range of concentrations (FIGS. 4-7)
Experimental: MTT (3-(4,5-dimethylthiazol-2-yl)-2,5-diphenyl tetrazolium bromide) has an […] colour and is soluble in the medium used for cell culture. The mitochondrial enzyme succinate dehydrogenase acts upon MTT in living cells to produce the insoluble purple coloured formazan. The amount of formazan produced, as measured by UV/visible spectroscopy, is proportional to the number of viable cells.
The medium was carefully removed using a needle without dislodging the crystal layer. 100 μL acidified isopropanol (4 M HCl 1:100 v/v in isopropanol) was added to each well and the purple crystals allowed to dissolve. The absorbance was measured in a plate reader at 540 nm, with 690 nm as reference. The controls were a deep purple colour, indicating a high number of live cells.
Addition of Compounds. […] These stock solutions were then diluted 100× in culture medium.

[2] = test system: macrophage cell line J774; experiment: Alamar Blue macrophage J774 viability assay; settings: Mus musculus, J774, 72 h, read-out: IC50 (μM) Alamar Blue

Compound: CC(=O)OCCCCOC(C)=O [ABD-0006, 1,4-Butanediol di(acetic acid)Ester]
- IC50 [1]: > 100 µM

Compound: CCCC(=O)OCCCCOC(=O)CCC [ABD-0007, 1,4-Butanediol di(butanoic acid)Ester]
- IC50 [1]: > 100 µM

Compound: O=C(OCCCCO)c1ccccc1 [ABD-0008, 1,4-Butanediol mono(benzoic acid)Ester]
- IC50 [1]: > 100 µM

Compound: O=C(OCCCCOC(=O)c1ccccc1)c1ccccc1 [ABD-0009, 1,4-Butanediol di(benzoic acid)Ester]
- IC50 [1]: > 100 µM

Compound: O=C(Cc1ccccc1)OCCCCOC(=O)Cc1ccccc1 [ABD-0014, 1,4-Butanediol di(phenylacetic acid)Ester]
- IC50 [1]: > 100 µM

Compound: O=C(Cc1ccccc1)OCCCCCCOC(=O)Cc1ccccc1 [ABD-0017, 1,6-Hexanediol di(phenylacetic acid)Ester]
- IC50 [1]: > 100 µM

Compound: O=C(OCCCCOC(=O)C1CCCCC1)C1CCCCC1 [ABD-0019, 1,4-Butanediol di(cyclclohexanecarboxylic acid)Ester]
- IC50 [1]: > 100 µM

Compound: O=C(OCCCCO)C(c1ccccc1)(c1ccccc1)c1ccccc1 [ABD-0028, 1,4-Butandiol mono(triphenylacetic acid)Ester]
- macrophage J774 viability, activity in words [1]: more potent
- IC50 [1]: 20 µM
- IC50 [2]: 30 µM

Compound: O=C(OCCCCCO)C(c1ccccc1)(c1ccccc1)c1ccccc1 [ABD-0030, 1,5-Pentandiol mono(triphenylacetic acid)Ester]
- IC50 [1]: 40 µM

Compound: O=C(OCCCCCCO)C(c1ccccc1)(c1ccccc1)c1ccccc1 [ABD-0031, 1,6-Hexandiol mono(triphenylacetic acid)Ester]
- IC50 [1]: 40 µM

Compound: O=C(Cc1cccc2ccccc12)OCCCCO [ABD-0032, 1,4-Butanediol mono(naphth-1-yl-acetic acid)Ester]
- activity at 100 μM concentration [1]: little activity
- IC50 [1]: > 100 µM

Compound: COc1ccc(CC(=O)OCCCCO)cc1OC [ABD-0033, 1,4-Butanediol mono(homoveratric acid)Ester]
- activity at 100 μM concentration [1]: little activity
- IC50 [1]: > 100 µM

Compound: O=C(OCCCCO)c1ccc(Cc2ccccc2)cc1 [ABD-0034, 1,4-Butanediol mono(4-benzylbenzoic acid)Ester]
- activity at 100 μM concentration [1]: little activity
- IC50 [1]: > 100 µM

Compound: CCCCOC(=O)C(C)c1ccc(CC(C)C)cc1 (stereo not drawn) [ABD-0035, Butyl [2-(4-isobutylphenyl)Propionic acid] ester]
- IC50 [1]: 72 µM

Compound: CC(C)Cc1ccc(C(C)C(=O)OCCCCO)cc1 (stereo not drawn) [ABD-0036, 1,4-Butanediol mono[2-(4-isobutylphenyl)Propionic acid]ester]
- macrophage J774 viability, activity in words [1]: most active
- IC50 [1]: 52 µM

Compound: CC(C)Cc1ccc(C(C)C(=O)OCCCO)cc1 (stereo not drawn) [ABD-0037, 1,3-Propanediol mono[2-(4-isobutylphenyl)Propionic acid]ester]
- IC50 [1]: 72 µM

Compound: CC(C)Cc1ccc(C(C)C(=O)OCCCCCO)cc1 (stereo not drawn) [ABD-0038, 1,5-Pentanediol mono[2-(4-isobutylphenyl)Propionic acid]ester]
- IC50 [1]: 68 µM

Compound: CC(C)Cc1ccc(C(C)C(=O)OCCCCCCO)cc1 (stereo not drawn) [ABD-0039, 1,6-Hexanediol mono[2-(4-isobutylphenyl)Propionic acid]ester]
- IC50 [1]: 72 µM

Compound: CCCCOC(=O)Cc1ccc(-c2ccccc2)cc1 [ABD-0040, Butyl (biphenyl-4-yl-acetic acid) ester]
- IC50 [1]: > 100 µM

Compound: O=C(Cc1ccc(-c2ccccc2)cc1)OCCCO [ABD-0041, 1,3-Propanediol mono(biphenyl-4-yl-acetic acid)Ester]
- IC50 [1]: 75 µM

Compound: O=C(Cc1ccc(-c2ccccc2)cc1)OCCCCO [ABD-0042, 1,4-Butanediol mono(biphenyl-4-yl-acetic acid)Ester]
- macrophage J774 viability, activity in words [1]: very active
- IC50 [1]: 45 µM
- IC50 [2]: 45 µM

Compound: O=C(Cc1ccc(-c2ccccc2)cc1)OCCCCCO [ABD-0043, 1,5-Pentanediol mono(biphenyl-4-yl-acetic acid)Ester]
- IC50 [1]: > 100 µM

Compound: O=C(Cc1ccc(-c2ccccc2)cc1)OCCCCCCO [ABD-0044, 1,6-Hexanediol mono(biphenyl-4-yl-acetic acid)Ester]
- macrophage J774 viability, activity in words [1]: very active
- IC50 [1]: 28 µM

Compound: CC(=O)OCCCCOC(=O)c1ccc(-c2ccccc2)cc1 [ABD-0049, Biphenyl-4-carboxylic acid (4-acetoxy)butyl ester]
- IC50 [2]: 50 µM

Compound: COCCCCOC(=O)c1ccc(-c2ccccc2)cc1 [ABD-0050, 4-Methoxybutyl (biphenyl-4-carboxylic acid) ester]
- IC50 [2]: > 100 µM

Compound: CCCCOC(=O)c1ccc(-c2ccccc2)cc1 [ABD-0053, Butyl (biphenyl-4-carboxylic acid) ester]
- macrophage J774 viability, activity in words [1]: very little activity
- IC50 [1]: > 100 µM

Compound: O=C(OCCCCCO)c1ccc(-c2ccccc2)cc1 [ABD-0055, 1,5-Pentanediol mono(biphenyl-4-carboxylic acid)Ester]
- IC50 [1]: 65 µM

Compound: O=C(OCCCO)c1ccc(-c2ccccc2)cc1 [ABD-0057, 1,3-Propanediol mono(biphenyl-4-carboxylic acid)Ester]
- IC50 [1]: > 100 µM

Compound: O=C(OCCCCO)c1ccccc1-c1ccccc1 [ABD-0059, 1,4-Butanediol (biphenyl-2-carboxylic acid) ester]
- activity at 100 μM concentration [1]: little activity
- IC50 [1]: > 100 µM

Compound: O=C(OCCCCO)c1ccc(I)cc1 [ABD-0069, 1,4-Butanediol mono(4-iodobenzoic acid)Ester]
- IC50 [2]: 90 µM

Compound: Cc1ccc(-c2ccc(C(=O)OCCCCO)cc2)cc1 [ABD-0070, 1,4-Butanediol mono(4′-methyl-biphenyl-4-carboxylic acid)Ester]
- IC50 [2]: > 100 µM

Compound: O=C(OCCCCO)c1ccc(-c2ccc(O)cc2)cc1 [ABD-0072, 1,4-Butanediol mono(4′-hydroxy-biphenyl-4-carboxylic acid)Ester]
- IC50 [2]: 45 µM

Compound: O=C(OCCCCO)c1c(F)c(F)c(F)c(F)c1F [ABD-0077, 1,4-Butanediol mono(pentafluorobenzoic acid)Ester]
- IC50 [2]: 25 µM

Compound: O=C(OCCCCOC(=O)c1c(F)c(F)c(F)c(F)c1F)c1c(F)c(F)c(F)c(F)c1F [ABD-0085, 1,4-Butanediol di(pentafluorobenzoic acid)Ester]
- IC50 [2]: 4 µM

Compound: O=C(OCCCCBr)c1ccc(-c2ccccc2)cc1 [ABD-0086, 4-Bromobutyl (biphenyl-4-carboxylic acid) ester]
- IC50 [2]: > 100 µM

Compound: O=C(OCCCCO[N+](=O)[O-])c1ccc(-c2ccccc2)cc1 [ABD-0087, 4-Nitrooxybutyl (biphenyl-4-carboxylic acid) ester]
- IC50 [2]: 30 µM

Compound: Cc1ccc(-c2ccc(C(=O)OCCCCO)cc2)cc1C [ABD-0089, 1,4-Butanediol mono(3′,4′-dimethyl-biphenyl-4-carboxylic acid)Ester]
- IC50 [2]: 9 µM

Compound: CCCCCOC(=O)c1ccc(-c2ccccc2)cc1 [ABD-0090, Pentyl (biphenyl-4-carboxylic acid) ester]
- IC50 [2]: 45 µM

Compound: CCc1ccc(-c2ccc(C(=O)OCCCCO)cc2)cc1 [ABD-0094, 1,4-Butanediol mono(4′-ethyl-biphenyl-4-carboxylic acid)Ester]
- IC50 [2]: > 100 µM

Compound: O=C(OCC(F)(F)C(F)(F)CO)c1ccc(-c2ccccc2)cc1 [ABD-0095, 2,2,3,3-Tetrafluoro-butane-1,4-diol mono(biphenyl-4-carboxylic acid)Ester]
- IC50 [2]: 40 µM

Compound: COc1ccc(-c2ccc(C(=O)OCCCCO)cc2)cc1 [ABD-0097, 1,4-Butanediol mono(4′-methoxy-biphenyl-4-carboxylic acid)Ester]
- IC50 [2]: > 100 µM

Compound: O=C(OCCCCO)c1ccc(-c2ccccc2[N+](=O)[O-])cc1 [ABD-0098, 1,4-Butanediol mono(2′-nitro-biphenyl-4-carboxylic acid)Ester]
- IC50 [2]: 17 µM

Compound: O=C(OCCCCO)c1ccc(-c2ccccc2F)cc1 [ABD-0099, 1,4-Butanediol mono(2′-fluoro-biphenyl-4-carboxylic acid)Ester]
- IC50 [2]: 14 µM

Compound: O=C(OCCCCO)c1ccc(-c2ccc(F)cc2)cc1 [ABD-0100, 1,4-Butandiol mono(4′-fluoro-biphenyl-4-carboxylic acid)Ester]
- IC50 [2]: 14 µM

Compound: O=C(OCCCCO)c1ccc(-c2ccc(Br)cc2)cc1 [ABD-0102, 1,4-Butanediol mono(4′-bromo-biphenyl-4-carboxylic acid)Ester]
- IC50 [2]: 14 µM

Compound: O=C(OCCCCO)c1c(F)ccc(F)c1F [ABD-0106, 1,4-Butanediol mono(2,3,6-trifluorobenzoic acid)Ester]
- IC50 [2]: > 100 µM

Compound: O=C(OCCCCO)c1ccc(F)c(F)c1 [ABD-0107, 1,4-Butanediol mono(3,4-difluorobenzoic acid)Ester]
- IC50 [2]: > 100 µM

Compound: O=C(OCCCCO)c1ccc(F)c(F)c1F [ABD-0108, 1,4-Butanediol mono(2,3,4-trifluorobenzoic acid)Ester]
- IC50 [2]: > 100 µM

Compound: O=C(OCCCCO)c1cc(F)c(F)cc1F [ABD-0109, 1,4-Butanediol mono(2,4,5-trifluorobenzoic acid)Ester]
- IC50 [2]: > 100 µM

Compound: O=C(OCCCCO)c1ccc(F)cc1F [ABD-0110, 1,4-Butanediol mono(2,4-difluorobenzoic acid)Ester]
- IC50 [2]: > 100 µM

Compound: O=C(OCCCCOC(=O)c1ccc(F)cc1F)c1ccc(F)cc1F [ABD-0111, 1,4-Butanediol di(2,4-difluorobenzoic acid)Ester]
- IC50 [2]: > 100 µM

Compound: O=C(O)c1ccc(-c2ccccc2)cc1 [biphenylcarboxylic acid, reference compound]
- macrophage J774 viability, activity in words [1]: not active
